Results published in patent US9977309B2, “Electrophoretic fluid” (Merck Patent GmbH, priority 2013, dated 2018).

test: Saturation solubility of dyes in decane; format: physicochemical

| SMILES | Saturation wt % in decane [wt %] |
| --- | --- |
| CCCCCCCCCCCCCCCCCCN(CCCCCCCCCCCCCCCCCC)c1cc(NC(C)=O)c(/N=N/c2c(C#N)cc([N+](=O)[O-])cc2C#N)cc1OC [Dye 1] | 0.003 |
| CCCCCCCCN(CCCCCCCC)c1ccc(/N=N/c2snc(C)c2C#N)c(NC(C)=O)c1 [Dye 4] | 0.19 |
| CCCCCCCCCCCCCCc1ccc(/N=N/c2c(C)c(C#N)c(=O)n(CC(CC)CCCC)c2O)cc1 (stereo not drawn) [Dye 5] | 1.03 |
| CCCCCCCCCCCCCCc1ccc(/N=N/c2c(C)cc(=O)n(CC(CC)CCCC)c2O)cc1 (stereo not drawn) [Dye 6] | 3.72 |
| CCCCc1ccc(/N=N/c2ccc(N(CCCC)CCCC)cc2)cc1 [Dye 7] | 9.95 |
| CCCCCCCCN(CCCCCCCC)c1ccc(/N=N/c2ccc([N+](=O)[O-])cc2)c(C)c1 [Dye 8] | 10.50 |
